# Experimental data reported in patent publication US11903955B2, “Methods of treating heart failure with reduced ejection fraction” (ASTRAZENECA AB, priority 2019, dated 2024).
# Tested on: patients with HFrEF without diabetes
# Conditions: individuals without diabetes at baseline
# From the text: FIG. 17 describes incidence of new onset T2D (HbA1c ≥6.5%) measured at 2 consecutive study visits post-randomization or investigator-reported new T2D vs placebo patients with previously undiagnosed diabetes, i.e., HbA1c ≥6.5%
# Patients also had measurement of a glycated hemoglobin (HbA1c) level in a central laboratory at visit 1 and again at visit 2 (the randomization visit), which occurred 14 (±7) days later. For this prespecified subgroup analysis, patients were categorized as having diabetes if there was a history of diabetes or the glycated hemoglobin was at least 6.5% (≥48 mmol/mol) at both visits 1 and 2. Patients with a glycated hemoglobin level <5.7% ([…]) at both visits 1 and 2 were considered to have a normal glycated hemoglobin. For the purposes of this study, patients with a glycated hemoglobin ≥5.7% and <6.5% were considered to have pre-diabetes. Id.
compound,measurement,setting,value
"CCOc1ccc(Cc2cc([C@@H]3O[C@H](CO)[C@@H](O)[C@H](O)[C@H]3O)ccc2Cl)cc1 [Dapagliflozin, dapagliflozin]","new-onset diabetes, HR",dapagliflozin vs placebo (Cox),0.68
same,reduction of new-onset diabetes,vs placebo,32%
